Experimental data from patent publication US20160326135A1, “2-HETARYL-PYRIDAZINONE DERIVATIVES AND THEIR USE AS HERBICIDES” (BAYER CROPSCIENCE AKTIENGESELLSCHAFT, priority 2013, published 2016).

Legend:
Type in all cases: in vivo
Amaranthus retroflexus [1] = assay: Post-emergence herbicidal action against harmful plants; settings: application rate 80 g/ha, scored visually after about 3 weeks, 100% = plants have died, 0% = like control plants
Experimental: (§1) Seeds of monocotyledonous and dicotyledonous weed and crop plants are laid out in sandy loam in wood-fiber pots, covered with soil and cultivated in a greenhouse under good growth conditions. 2 to 3 weeks after sowing, the trial plants are treated at the one-leaf stage. The compounds of the invention, formulated in the form of wettable powders (WP) or as emulsion concentrates (EC), are then sprayed onto the green parts of the plants in the form of an aqueous suspension or emulsion at a water application rate equating to 600 to 800 I/ha, with addition of 0.2% wetting agent. After the trial plants have been left to stand in a greenhouse under optimal growth conditions for about 3 weeks, the efficacy of the formulations is scored visually in comparison to untreated controls (herbicidal action in percent (%): 100% efficacy=the plants have died, 0% efficacy=like control plants). In this trial, for example, compound no.

Ipomoea purpurea = assay: as above; settings: application rate 80 g/ha, scored visually after about 3 weeks, 100% = plants have died, 0% = like control plants
Experimental: as §1

Matricaria inodora [2] = assay: as above; settings: application rate 80 g/ha, scored visually after about 3 weeks, 100% = plants have died, 0% = like control plants
Experimental: as §1

Setaria viridis [3] = assay: as above; settings: application rate 80 g/ha, scored visually after about 3 weeks, 100% = plants have died, 0% = like control plants
Experimental: as §1

Echinochloa crus galli [4] = assay: as above; settings: application rate 80 g/ha, scored visually after about 3 weeks, 100% = plants have died, 0% = like control plants
Experimental: as §1

Viola tricolor [5] = assay: as above; settings: application rate 80 g/ha, scored visually after about 3 weeks, 100% = plants have died, 0% = like control plants
Experimental: as §1

Veronica persica [6] = assay: as above; settings: application rate 80 g/ha, scored visually after about 3 weeks, 100% = plants have died, 0% = like control plants
Experimental: as §1

Stellaria media [7] = assay: as above; settings: application rate 80 g/ha, scored visually after about 3 weeks, 100% = plants have died, 0% = like control plants
Experimental: as §1

Amaranthus retroflexus [8] = assay: Pre-emergence herbicidal action against harmful plants; settings: application rate 320 g/ha, scored visually after 3 weeks, 100% = plants have died, 0% = like control plants
Text: (§2) Seeds of monocotyledonous and dicotyledonous weed plants and crop plants are laid out in wood-fiber pots in sandy loam and covered with soil. The compounds of the invention, formulated in the form of wettable powders (WP) or as emulsion concentrates (EC), are then applied to the surface of the covering soil in the form of an aqueous suspension or emulsion at a water application rate equating to 600 to 800 I/ha, with addition of 0.2% wetting agent. After the treatment, the pots are placed in a greenhouse and kept under good growth conditions for the trial plants. The damage to the trial plants is scored visually after a trial duration of 3 weeks by comparison with untreated controls (herbicidal activity in percent (%): 100% efficacy=the plants have died, 0% efficacy=like control plants). In this trial, for example, compound no.

Matricaria inodora [9] = assay: as above; settings: application rate 320 g/ha, scored visually after 3 weeks, 100% = plants have died, 0% = like control plants
Text: as §2

Setaria viridis [10] = assay: as above; settings: application rate 320 g/ha, scored visually after 3 weeks, 100% = plants have died, 0% = like control plants
Text: as §2

Echinochloa crus galli [11] = assay: as above; settings: application rate 320 g/ha, scored visually after 3 weeks, 100% = plants have died, 0% = like control plants
Text: as §2

Viola tricolor [12] = assay: as above; settings: application rate 320 g/ha, scored visually after 3 weeks, 100% = plants have died, 0% = like control plants
Text: as §2

Veronica persica [13] = assay: as above; settings: application rate 320 g/ha, scored visually after 3 weeks, 100% = plants have died, 0% = like control plants
Text: as §2

Abutilon theophrasti = assay: as above; settings: application rate 320 g/ha, scored visually after 3 weeks, 100% = plants have died, 0% = like control plants
Text: as §2

Stellaria media [14] = assay: as above; settings: application rate 320 g/ha, scored visually after 3 weeks, 100% = plants have died, 0% = like control plants
Text: as §2

Cc1cnn(-c2ccc(C(F)(F)F)c(=O)n2C)c(=O)c1O [1-3, 4-hydroxy-5-methyl-2-(1-methyl-3-(trifluoromethyl)pyrid-2-on-6-yl)-pyridazin-3-one]
at least 80%: herbicidal action in percent (efficacy) (Amaranthus retroflexus [1]) | herbicidal action in percent (efficacy) (Ipomoea purpurea) | herbicidal action in percent (efficacy) (Matricaria inodora [2]) | herbicidal action in percent (efficacy) (Setaria viridis [3]) | herbicidal action in percent (efficacy) (Echinochloa crus galli [4]) | herbicidal action in percent (efficacy) (Viola tricolor [5]) | herbicidal action in percent (efficacy) (Veronica persica [6]) | herbicidal action in percent (efficacy) (Stellaria media [7]) | herbicidal activity in percent (efficacy) (Amaranthus retroflexus [8]) | herbicidal activity in percent (efficacy) (Matricaria inodora [9]) | herbicidal activity in percent (efficacy) (Setaria viridis [10]) | herbicidal activity in percent (efficacy) (Echinochloa crus galli [11]) | herbicidal activity in percent (efficacy) (Viola tricolor [12]) | herbicidal activity in percent (efficacy) (Veronica persica [13]) | herbicidal activity in percent (efficacy) (Abutilon theophrasti) | herbicidal activity in percent (efficacy) (Stellaria media [14])
